# Data taken from US11926645B2, “Compounds and methods for treatment of viral infections” (priority 2020, dated 2024).
# pEC50: −log10 of the molar value. Like-named read-outs stand apart in the source and are kept apart here.
# Key:
# [1] = male cynomolgus monkeys; oral Reference Compound A 5 mg/kg
# in vitro [2] = format: in vitro ADME, Human; conditions: human, s9, pH 7.4
# Experimental: (§1) Duplicate aliquots of test compound or positive control substrate (GS-7340) were added to S9 stock diluted with 100 mM phosphate buffered saline, pH 7.4, to obtain a protein concentration of 1.0 mg/mL. The S9 metabolic reactions were initiated by the addition of the substrates to the S9 reaction mixture to a final concentration of 2 μM. At 0, 10, 20, 30, 60 and 120 min, 25 μL aliquots of the reaction mixture were transferred to plates containing 225 μl of IS/Q solution. After quenching, the plates were centrifuged at 3000×g for 30 minutes, and 150 μL aliquots of each supernatant were diluted with 150 μL water. Aliquots (10 μL) of the diluted supernatant were analyzed on a Thermo Q-Exactive mass spectrometer as described below.
# (§2) Quantification of test compounds and controls was performed by analyte/internal standard peak area ratio (PAR) values measured on a Thermo Q-Exactive mass spectrometer coupled to a Dionex UltiMate 3000 HPLC with a Leap Technologies HTC PAL autosampler. The column used was a Thermo Hypersil GOLD (1.9 μm particle size, 2.1×50 mm). Mobile phase A consisted of 0.1% (v/v) formic acid in water. Mobile phase B consisted of 0.1% (v/v) formic acid in acetonitrile. Elution of analytes was achieved by a series of linear gradients of acetonitrile in water containing 0.1% (v/v) formic acid. The mass spectrometer was calibrated on a weekly basis and mass tolerance of 5 ppm was used.
# [3] = female ferrets; oral Reference Compound A 20 mg/kg
# [4] = tested on: RSV-Fluc (Respiratory Syncytial virus strain A2 containing the firefly luciferase reporter); assay: microbe, parasite or virus in culture; format: cell-based; conditions: human respiratory syncytial virus, 72 h, NHBE cells, three days
# in vitro [5] = conditions: human
# SARS-CoV-2 WA1/2020 A = assay: microbe, parasite or virus in culture; format: cell-based; conditions: Severe acute respiratory syndrome coronavirus 2, Vero C1008
# in vitro [6] = format: in vitro ADME; conditions: s9, pH 7.4
# Experimental: as §1, with “mM potassium” for “mM”, “phosphate buffer,” for “phosphate buffered saline,”, “of 2.4” for “of 1.0”, “At 2, 12, 25, 45, 65” for “At 0, 10, 20, 30, 60”, “and 90” for “and 120”, “150 μl,” for “150 μL”
# as §2
# SARS-CoV-2 BZ/2021 P.1 = assay: microbe, parasite or virus in culture; format: cell-based; conditions: Severe acute respiratory syndrome coronavirus 2, Vero C1008
# in vitro [7] = conditions: hamster
# in vitro [8] = format: cell-based; conditions: human
# Experimental: The cytotoxicity of compounds was determined in A549-hACE2 cells in the following manner. Compounds (200 nL) were spotted onto 384-well Grenier plates prior to seeding 5000 A549-hACE2 cells/well in a volume of 40 μL culture medium. The plates were incubated at 37° C. for 48 hours with 5% CO2. On day 2, 40 μL of CellTiter-Glo (Promega) was added and mixed 5 times.
# in vitro [9] = conditions: human; remark: listed apart in the source
# [10] = ferrets, single dose, Reference Compound A i.v. 20 mg/kg
# in vivo [11] = conditions: male, beagle, dog, po, 5 mg/kg
# in vitro [12] = conditions: human, PrestoBlue
# [13] = male Balb/c mice; oral Reference Compound A 24 mg/kg
# in vitro [14] = conditions: African green monkey
# in vivo [15] = conditions: male, Balb/c, mouse, po, 24 mg/kg
# [16] = male beagle dogs; oral Reference Compound A 5 mg/kg
# in vivo [17] = conditions: male, Sprague-Dawley, rat, po; for AUC(0-inf): Reference Compound A AUCinf.; for Cmax: Reference Compound A Cmax
# [18] = tested on: SARS-CoV-2 SA/2020 B.1.351; assay: microbe, parasite or virus in culture; format: cell-based; conditions: Severe acute respiratory syndrome coronavirus 2, Vero C1008
# in vivo [19] = conditions: female, po, 20 mg/kg
# SARS-CoV-2-Nluc viruses = assay: microbe, parasite or virus in culture; format: cell-based
# Plasma stability = conditions: human
# in vivo [20] = conditions: male, cynomolgus monkey, po, 5 mg/kg
# SARS-CoV-2 CA/2020 = assay: microbe, parasite or virus in culture; format: cell-based; conditions: Severe acute respiratory syndrome coronavirus 2, Vero C1008
# CES2 = target: T1, CES2 (Homo sapiens, UniProt O00748); assay: CES1/2 stability, CES2; format: in vitro ADME; conditions: CES2 Supersome preparation; Supersome preparations, CES 1.5 mg/ml, 2 μM substrate, pH 7.4, 37° C.; read-out: CES2 T1/2
# T1 construct: purchased
# T1 sequence (O00748 27-559): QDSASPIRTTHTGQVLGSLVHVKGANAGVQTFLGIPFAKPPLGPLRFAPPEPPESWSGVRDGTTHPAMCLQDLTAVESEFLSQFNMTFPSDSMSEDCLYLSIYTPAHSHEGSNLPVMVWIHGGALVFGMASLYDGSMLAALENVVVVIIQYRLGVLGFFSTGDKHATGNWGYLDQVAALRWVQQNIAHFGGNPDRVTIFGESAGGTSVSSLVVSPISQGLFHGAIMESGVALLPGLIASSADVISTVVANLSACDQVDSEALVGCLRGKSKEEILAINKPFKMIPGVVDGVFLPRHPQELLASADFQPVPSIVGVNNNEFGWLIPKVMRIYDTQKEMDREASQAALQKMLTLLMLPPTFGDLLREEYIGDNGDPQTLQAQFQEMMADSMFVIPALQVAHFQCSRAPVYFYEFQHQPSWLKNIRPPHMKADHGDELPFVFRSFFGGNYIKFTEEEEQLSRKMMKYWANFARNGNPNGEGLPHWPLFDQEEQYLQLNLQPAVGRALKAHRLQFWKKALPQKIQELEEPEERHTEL
# Experimental: (§3) Test compounds or positive control substrates (oseltamivir for CES1 enzymes or procaine for CES2) were incubated with individual Supersome preparations (final CES concentration 1.5 mg/ml) in 0.1 M potassium phosphate buffer (pH 7.4) at 37° C. Substrates were added to a final concentration of 2 μM to initiate the reaction. The final incubation volume was 250 μL. Aliquots were removed after incubation for 0, 10, 30, 60 and 120 min. The reactions were stopped by the addition of IS/Q. Following protein precipitation and centrifugation, 150 μL of supernatant was diluted with an equal volume of water prior to LC-MS analysis. For procaine 150 μL of supernatant was dried down and reconstituted with 250 μL water. All samples were analyzed by LC-MS and the PAR values were used for quantification.
# SARS-CoV-2 = tested on: SARS-CoV-2; set-up: species or system ferrets; conditions: in vivo, po
# RSV strain A2 = assay: RSV antiviral assay (Hep2), EC50-Hep2/B1-384; format: cell-based; conditions: human respiratory syncytial virus, HEp-2, 96 h; Hep2 cells, 4 days, Cell-Titer Glo
# [21] = male, Sprague-Dawley, rat, in vivo, po, 6 mg/kg
# CES1 = target: T2, CES1 (Homo sapiens, UniProt P23141); assay: CES1/2 stability, CES1; format: in vitro ADME; conditions: CES1 Supersome preparation; Supersome preparations, CES 1.5 mg/ml, 2 μM substrate, pH 7.4, 37° C.; read-out: CES1 T1/2
# T2 construct: purchased
# T2 sequence (P23141 18-567): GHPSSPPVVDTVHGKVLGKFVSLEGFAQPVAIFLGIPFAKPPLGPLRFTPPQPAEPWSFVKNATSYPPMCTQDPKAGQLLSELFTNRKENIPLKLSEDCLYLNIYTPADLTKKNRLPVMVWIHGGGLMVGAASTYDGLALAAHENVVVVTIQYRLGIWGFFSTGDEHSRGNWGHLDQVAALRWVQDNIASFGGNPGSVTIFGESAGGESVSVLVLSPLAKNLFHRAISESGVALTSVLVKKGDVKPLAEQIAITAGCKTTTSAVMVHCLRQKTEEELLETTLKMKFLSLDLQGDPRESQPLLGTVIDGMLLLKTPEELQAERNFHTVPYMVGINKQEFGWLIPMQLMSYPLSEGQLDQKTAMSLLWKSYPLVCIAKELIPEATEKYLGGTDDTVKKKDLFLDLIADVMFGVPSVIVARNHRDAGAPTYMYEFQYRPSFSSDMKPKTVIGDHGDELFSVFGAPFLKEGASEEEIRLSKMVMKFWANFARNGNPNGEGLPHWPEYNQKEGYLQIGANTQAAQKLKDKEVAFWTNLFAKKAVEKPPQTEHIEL
# Experimental: as §3
compound,measurement,setting,value
"N#C[C@@]1(c2ccc3c(N)ncnn23)O[C@H](CO)[C@@H](O)[C@H]1O [Reference Compound A, (2R,3R,4S,5R)-2-(4-aminopyrrolo[2,1-f][1,2,4]triazin-7-yl)-3,4-dihydroxy-5-(hydroxymethyl)tetrahydrofuran-2-carbonitrile]",Reference Compound A F % (based on compound A mg-eq dose),[1],3.4%
same,half-life at 2 μM,in vitro [2],> 700 min
same,Reference Compound A F % (based on Reference Compound A mg-eq dose),[3],87%
same,pEC50,[4],5.71
same,CC50,in vitro [5],> 100000 nM
same,pEC50,SARS-CoV-2 WA1/2020 A,6.17
same,half-life at 2 μM,in vitro [6],592 min
same,pEC50,SARS-CoV-2 BZ/2021 P.1,6.26
same,CC50,in vitro [7],> 100000 nM
same,CC50,"in vitro [8]; host cells A549-ACE2, read-out: CC50, A549-ACE2",> 50000 nM
same,CC50,in vitro [9],> 100000 nM
same,Reference Compound A AUClast,[10],81.1 µM·h
same,Reference Compound A IV - CL,[10],14.3 mL/min/kg
same,Reference Compound A t1/2,[10],204 min
same,Cmax,[10]; read-out: Reference Compound A Cmax,54.2 µM
same,AUC(0-inf),in vivo [11],83.9 µM·h
same,Cmax,in vivo [11],27.3 µM
same,CC50,"in vitro [12]; CC50, F2 HAE, primary HAE donor F2, 72 hours",> 100000 nM
same,CC50,"in vitro [12]; CC50, F3 HAE, primary HAE donor F3, 72 hours",> 100000 nM
same,CC50,"in vitro [12]; CC50, M2 HAE, primary HAE donor M2, 72 hours",> 100000 nM
same,CC50,"in vitro [12]; CC50, M6 HAE, primary HAE donor M6, 72 hours",> 100000 nM
same,Reference Compound A F % (based on compound A mg-eq dose),[13],33%
same,CC50,in vitro [14],> 100000 nM
same,AUC(0-inf),in vivo [15],45.1 µM·h
same,Cmax,in vivo [15],13.7 µM
same,Reference Compound A F % (based on compound A mg-eq dose),[16],89%
same,AUC(0-inf),in vivo [17]; 5 mg/kg,3.07 µM·h
same,Cmax,in vivo [17]; 5 mg/kg,0.875 µM
same,AUC(0-inf),in vivo [17]; 10 mg/kg,2.36 µM·h
same,Cmax,in vivo [17]; 10 mg/kg,0.578 µM
same,pEC50,[18],6.47
same,AUC(0-inf),in vivo [19],70.9 µM·h
same,Cmax,in vivo [19],11.7 µM
same,pEC50,"SARS-CoV-2-Nluc viruses; Severe acute respiratory syndrome coronavirus 2, host cells A549-ACE2, read-out: EC50, WA1/2020-nano luciferase",5.80
same,half-life at 2 μM,Plasma stability,> 1500 min
same,AUC(0-inf),in vivo [20],1.86 µM·h
same,Cmax,in vivo [20],0.536 µM
same,pEC50,SARS-CoV-2 CA/2020,6.68
"CC(C)C(=O)OC[C@H]1O[C@@](C#N)(c2ccc3c(N)ncnn23)[C@H](O)[C@@H]1O [Compound 15, ((2R,3S,4R,5R)-5-(4-aminopyrrolo[2,1-f][1,2,4]triazin-7-yl)-5-cyano-3,4-dihydroxytetrahydrofuran-2-yl)methyl isobutyrate]",half-life at 2 μM,in vitro [2],69 min
same,pEC50,[4],6.23
same,half-life at 2 μM,CES2,< 1 min
same,half-life at 2 μM,in vitro [6],1.2 min
same,"Change from vehicle, nasal lavage AUC(0-96) PFU/mL",SARS-CoV-2; 5 mg/kg,−2.21 log10
same,"Change from vehicle, nasal lavage AUC(0-96) RNA copies/μL",SARS-CoV-2; 5 mg/kg,−1.33 log10
same,"Change from vehicle, nasal turbinate terminal PFU/mL",SARS-CoV-2; 5 mg/kg,−1.68 log10
same,"Change from vehicle, nasal turbinate terminal RNA copies/μL",SARS-CoV-2; 5 mg/kg,−2.14 log10
same,"Change from vehicle, nasal lavage AUC(0-96) PFU/mL",SARS-CoV-2; 10 mg/kg,−2.50 log10
same,"Change from vehicle, nasal lavage AUC(0-96) RNA copies/μL",SARS-CoV-2; 10 mg/kg,−1.51 log10
same,"Change from vehicle, nasal turbinate terminal PFU/mL",SARS-CoV-2; 10 mg/kg,−2.20 log10
same,"Change from vehicle, nasal turbinate terminal RNA copies/μL",SARS-CoV-2; 10 mg/kg,−1.79 log10
same,"Change from vehicle, nasal lavage AUC(0-96) PFU/mL",SARS-CoV-2; 40 mg/kg,−2.80 log10
same,"Change from vehicle, nasal lavage AUC(0-96) RNA copies/μL",SARS-CoV-2; 40 mg/kg,−1.91 log10
same,"Change from vehicle, nasal turbinate terminal PFU/mL",SARS-CoV-2; 40 mg/kg,−3.79 log10
same,"Change from vehicle, nasal turbinate terminal RNA copies/μL",SARS-CoV-2; 40 mg/kg,−4.01 log10
same,CC50 at 48 h,in vitro [8],> 50000 nM
same,pEC50,RSV strain A2,6.39
same,pEC50,"SARS-CoV-2-Nluc viruses; Severe acute respiratory syndrome coronavirus 2, 48 h, read-out: SARS-CoV2 EC50",5.99
same,half-life at 2 μM,Plasma stability,29 min
same,Cmax,[21],2.1 µM
same,half-life at 2 μM,CES1,6 min
